One assay addresses human factor D (Homo sapiens (Human), UniProt P00746). Put plainly: biochemical. In kind it is biochemical. To be noted: Factor D inhibition data using Method 1; recombinant human factor D 10 nM, substrate Z-Lys-thiobenzyl, fluorescence; read-out: IC50. On the procedure: Human Complement Factor D Assay: Method 1
Recombinant human factor D (expressed in E. coli and purified using standard methods) at 10 nM concentration is incubated with test compound at various concentrations for 1 hour at room temperature in 0.1 M Hepes buffer, pH 7.5, containing 1 mM MgCl2, 1 M NaCl and 0.05% CHAPS. A synthetic substrate Z-Lys-thiobenzyl and 2,4-dinitrobenzenesulfonyl-fluoresceine are added to final concentrations of 200 μM and 25 μM, respectively. The increase in fluorescence is recorded at excitation of 485 nm and emission at 535 nm in a microplate spectrofluorimeter. IC50 values are calculated from percentage of inhibition of complement factor D-activity as a function of test compound concentration.
human factor D, sequence (P00746 26-253): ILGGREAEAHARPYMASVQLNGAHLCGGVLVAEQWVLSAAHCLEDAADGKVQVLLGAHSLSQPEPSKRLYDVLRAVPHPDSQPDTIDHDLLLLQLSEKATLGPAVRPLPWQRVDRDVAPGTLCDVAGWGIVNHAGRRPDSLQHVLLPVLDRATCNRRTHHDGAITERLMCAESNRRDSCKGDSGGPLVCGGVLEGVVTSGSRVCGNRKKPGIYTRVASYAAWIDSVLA
Take `CC(=O)c1nn(CC(=O)N2[C@@H]3C[C@@H]3C[C@H]2C(=O)NC[C@H]2CC2(Cl)Cl)c2ccc(CCc3ncccn3)cc12` [Example 43, (1R,3S,5R)-2-{2-[3-Acetyl-5-(2-pyrimidin-2-yl-ethyl)-indazol-1-yl]-acetyl}-2-aza-bicyclo[3.1.0] hexane-3-carboxylic acid ((R)-2,2-dichloro-cyclopropylmethyl)-amide]: the IC50 stood at 71 nM.
In the case of `NC(=O)c1nn(CC(=O)N2[C@@H]3C[C@@H]3C[C@H]2C(=O)NC[C@H]2CC2(Cl)Cl)c2ccc(F)cc12` [Example 98, 1-(2-{(1R,3S,5R)-3-[((R)-2,2-Dichloro-cyclopropylmethyl)-carbamoyl]-2-aza-bicyclo[3.1.0]hex-2-yl}-2-oxo-ethyl)-5-fluoro-1H-indazole-3-carboxylic acid amide], the IC50 turned out to be 248 nM.
In the case of `CO[C@H]1[C@@H](C(=O)N[C@H](C)[C@H]2CC2(Cl)Cl)N(C(=O)Cn2nc(C(N)=O)c3ccccc32)C[C@@H]1F` [Example 59, 1-(2-{(2S,3S,4S)-2-[(R)-1-((R)-2,2-Dichloro-cyclopropyl)-ethylcarbamoyl]-4-fluoro-3-methoxy-pyrrolidin-1-yl}-2-oxo-ethyl)-1H-indazole-3-carboxylic acid amide], the IC50 came out at 14 nM.
For the compound `CC(=O)c1nn(CC(=O)N2[C@@H]3C[C@@H]3C[C@H]2C(=O)NC2(C3CCCCC3)CC2)c2cnccc12` [Example 15, (1R,3S,5R)-2-[2-(3-Acetyl-pyrazolo[3,4-c]pyridin-1-yl)-acetyl]-2-aza-bicyclo[3.1.0] hexane-3-carboxylic acid (1-cyclohexyl-cyclopropyl)-amide], the IC50 worked out at 358 nM.
The same measure, in the same setting: the value for `CC(=O)c1nn(CC(=O)N2[C@@H]3C[C@@H]3C[C@H]2C(=O)N[C@H](C)[C@H]2CC2(Cl)Cl)c2ccc(OCc3ccn(C)n3)cc12` [Example 66, (1R,3S,5R)-2-{2-[3-Acetyl-5-(1-methyl-1H-pyrazol-3-ylmethoxy)-indazol-1-yl]-acetyl}-2-aza-bicyclo[3.1.0]hexane-3-carboxylic acid [(R)-1-((R)-2,2-dichloro-cyclopropyl)-ethyl]-amide] was 4 nM; that for `NC(=O)c1nn(CC(=O)N2[C@@H]3C[C@@H]3C[C@H]2C(=O)NC[C@H]2CC2(Cl)Cl)c2ccc(OCc3nccs3)cc12` [Example 40, 1-(2-{(1R,3S,5R)-3-[((R)-2,2-Dichloro-cyclopropylmethyl)-carbamoyl]-2-aza-bicyclo[3.1.0]hex-2-yl}-2-oxo-ethyl)-5-(thiazol-2-ylmethoxy)-1H-indazole-3-carboxylic acid amide] was 7 nM.
On the same count and under the same terms, the value for `NC(=O)n1cc(NC(=O)N2[C@@H]3C[C@@H]3C[C@H]2C(=O)NCC2CC=CCC2)c2ccccc21` (stereo partly drawn) [Example 26, (1R,3S,5R)-2-Aza-bicyclo[3.1.0]hexane-2,3-dicarboxylic acid 2-[(1-carbamoyl-1H-indol-3-yl)-amide] 3-[(cyclohex-3-enylmethyl)-amide]] was 305 nM; that for `CC(=O)c1nn(CC(=O)N2[C@@H]3C[C@@H]3C[C@H]2C(=O)N[C@H](C)C2CCCCC2)c2cnccc12` [Example 6, (1R,3S,5R)-2-[2-(3-Acetyl-pyrazolo[3,4-c]pyridin-1-yl)-acetyl]-2-aza-bicyclo[3.1.0] hexane-3-carboxylic acid ((R)-1-cyclohexyl-ethyl)-amide] was 71 nM; that for `NC(=O)c1nn(CC(=O)N2[C@@H]3C[C@@H]3C[C@H]2C(=O)NC[C@H]2CC2(Cl)Cl)c2ccncc12` [Example 95, 1-(2-{(1R,3S,5R)-3-[((R)-2,2-Dichlorocyclopropylmethyl)-carbamoyl]-2-aza-bicyclo[3.1.0]hex-2-yl}-2-oxo-ethyl)-1H-pyrazolo[4,3-c]pyridine-3-carboxylic acid amide] was 482 nM.
Turning to `CC(=O)c1nn(CC(=O)N2[C@@H]3C[C@@H]3C[C@H]2C(=O)NCC2CCCC(C)C2)c2cnccc12` (single isomer, unassigned; dia 1) [Example 119], the IC50 turned out to be 188 nM.
The same measure, in the same setting: the value for `[2H]C([2H])([2H])[C@@H](NC(=O)[C@@H]1C[C@H]2C[C@H]2N1C(=O)Nc1cn(C(N)=O)c2ccccc12)[C@H]1CC1(Cl)Cl` [Example 30, (1R,3S,5R)-2-Aza-bicyclo [3.1.0]hexane-2,3-dicarboxylic acid 2-[(1-carbamoyl-1H-indol-3-yl)-amide] 3-{[(R)-1-((R)-2,2-dichloro-cyclopropyl)-ethyl-2,2,2-D3]-amide}] was 15 nM; that for `CO[C@H]1[C@@H](C(=O)NC[C@H]2CC2(Cl)Cl)N(C(=O)Cn2nc(C(N)=O)c3ccc(C)cc32)C[C@@H]1F` [Example 48, 1-(2-{(2S,3S,4S)-2-[((R)-2,2-Dichloro-cyclopropylmethyl)-carbamoyl]-4-fluoro-3-methoxy-pyrrolidin-1-yl}-2-oxo-ethyl)-6-methyl-1H-indazole-3-carboxylic acid amide] was 27 nM.
On the same count and under the same terms, the value for `C[C@@H](NC(=O)[C@@H]1C[C@H]2C[C@H]2N1C(=O)Cn1nc(C(N)=O)c2ccccc21)[C@H]1CC1(Cl)Cl` [Example 36, 1-(2-{(1R,3S,5R)-3-[(R)-1-((R)-2,2-Dichloro-cyclopropyl)-ethylcarbamoyl]-2-aza-bicyclo[3.1.0]hex-2-yl}-2-oxo-ethyl)-1H-indazole-3-carboxylic acid amide] was 25 nM; that for `CC(=O)c1nn(CC(=O)N2[C@@H]3C[C@@H]3C[C@H]2C(=O)N[C@H](CO)C2CCCCC2)c2cnccc12` [Example 9, (1R,3S,5R)-2-[2-(3-Acetyl-pyrazolo[3,4-c]pyridin-1-yl)-acetyl]-2-aza-bicyclo[3.1.0] hexane-3-carboxylic acid ((S)-1-cyclohexyl-2-hydroxy-ethyl)-amide] was 469 nM.

The assay is the same for the next values; noted with them: IC50, Factor D inhibition data using Method 1; recombinant human factor D 10 nM, substrate Z-Lys-thiobenzyl, fluorescence.
Regarding `CC(=O)c1nn(CC(=O)N2[C@@H]3C[C@@H]3C[C@H]2C(=O)NCC2C(C)C2(Cl)Cl)c2ccc(OCc3ncccn3)cc12` (single isomer, unassigned; dia 2) [Example 76, (1R,3S,5R)-2-{2-[3-Acetyl-5-(pyrimidin-2-ylmethoxy)-indazol-1-yl]-acetyl}-2-aza-bicyclo[3.1.0] hexane-3-carboxylic acid ((1R,3R) or (1S,3S)-2,2-dichloro-3-methyl-cyclopropylmethyl)-amide-Dia 2], the IC50 came to 3 nM.
Take `NC(=O)c1nn(CC(=O)N2[C@@H]3C[C@@H]3C[C@H]2C(=O)NC(CO)C2CC2(Cl)Cl)c2ccccc12` (single isomer, unassigned; dia 4) [Example 51]: the IC50 was 246 nM.
For the compound `CC1C(CNC(=O)[C@@H]2C[C@H]3C[C@H]3N2C(=O)Cn2nc(C(N)=O)c3ccccc32)C1(Cl)Cl` (single isomer, unassigned; dia 2) [Example 78, 1-(2-{(1R,3S,5R)-3-[((1R,3S) or (1S,3R)-2,2-Dichloro-3-methyl-cyclopropylmethyl)-carbamoyl]-2-aza-bicyclo[3.1.0]hex-2-yl}-2-oxo-ethyl)-1H-indazole-3-carboxylic acid amide-Dia 2], the IC50 was found to be 62 nM.
With `CC1C(CNC(=O)[C@@H]2C[C@H]3C[C@H]3N2C(=O)Cn2nc(C(N)=O)c3ccccc32)C1(Cl)Cl` (single isomer, unassigned; dia 1) [Example 77, 1-(2-{(1R,3S,5R)-3-[((1R,3S) or (1S,3R)-2,2-Dichloro-3-methyl-cyclopropylmethyl)-carbamoyl]-2-aza-bicyclo[3.1.0]hex-2-yl}-2-oxoethyl)-1H-indazole-3-carboxylic acid amide-Dia 1], the IC50 came to 35 nM.

These data come from patent publication US9468661B2, “Pyrrolidine derivatives and their use as complement pathway modulators” (priority 2012, dated 2016).
